# Patent US20230201179A1, “AGENT FOR TREATING CONTRAST-INDUCED ACUTE KIDNEY INJURY” (APTABIO THERAPEUTICS INC., priority 2020, published 2023)
# Assays:
# [1] = test system: contrast media-induced acute kidney injury; assay: Efficacy evaluation in animal model with contrast media-induced acute kidney injury in mice; format: in vivo, C57BL/6 mice
# Method: As the experimental animals, 6-week-old male C57BL/6 mice were purchased from LionBio. All mice were maintained under standard conditions. After breeding for about 2 weeks, at 8 weeks of age, Compound 1 (3-phenyl-4-n-propyl-1-(pyridin-2-yl)-1H-pyrazol-5-ol hydrochloride) was orally administered at a dose of 60 mg/kg daily for 5 days before administration of contrast media. In order to induce acute kidney injury, after a fast of 16 hours, the anti-inflammatory analgesic indomethacin (10 mg/kg) and the NO blocker N-nitro-L-arginine (L-NAME, 10 mg/kg) were intraperitoneally administered 15 minutes before administration of contrast media, and contrast media (Iohexol, 4000 mg iodine/kg) was intraperitoneally administered 15 minutes later. After 24 hours of supplying food and water, the animal test substances were classified into three groups: vehicle administered group (Control) and contrast media administered group (Iohexol), and contrast media and Compound 1 simultaneously administered group (Iohexol+Compound 1). After completion of the test, the animals were anesthetized, kidney tissue was enucleated for each individual, and blood was taken for examination. The tissues were fixed in 10% buffered neutral formalin solution. The fixed tissues were sliced to a certain thickness and paraffin-embedded through a general tissue processing process to produce a tissue section of 4 to 5 μm, and then hematoxylin & eosin staining (H&E stain), which is a general staining method, was performed to observe histopathologically the extent of kidney injury in the region of the renal cortex and renal medulla, and F4/80 staining, Tunel staining, DHE staining and nitrotyrosine staining were performed to observe the effects of inflammation and oxidative stress in the kidney injury tissue. Blood was taken and centrifuged at 3000 rpm, 4° C. for 10 minutes, and the upper layer of serum was taken and the level of blood urea nitrogen (BUN) and creatinine was measured using an automatic blood biochemical analyzer (AU480, Beckman Coulter, USA) to confirm the indicator of kidney injury. Histologic evaluation of the degree of kidney injury was calculated as 0 point for no renal tubular injury, 1 point for mild injury, 2 points for intratubular vacuolar lesions less than 25-60%, and 3 points for intratubular vacuolar lesions of 60% or more, thereby formulating the average value of renal tubular injury under the microscope field of view.
# reactive oxygen species = assay: Inhibitory effect on the formation of reactive oxygen species
# [2] = 60 mg/kg orally once a day for 5 days before Iohexol, vs contrast media-treated group
structure (smiles),measurement,setting,value
"CCCc1c(-c2ccccc2)nn(-c2ccccn2)c1O.Cl [Compound 1, 3-phenyl-4-propyl-1-(pyridin-2-yl)-1H-pyrazol-5-ol hydrochloride]","kidney injury of the renal medulla and the renal cortex (H&E histopathology, FIG. 1)","[1]; 60 mg/kg orally once a day for 5 days before Iohexol 4000 mg iodine/kg i.p., vs contrast media-treated group",remarkably reduced
same,renal tubular injury score (FIG. 5),"[1]; 60 mg/kg orally once a day for 5 days before Iohexol, score 0-3, renal biopsy",remarkably reduced
same,"activated oxygen (reactive oxygen species, DHE staining) in the kidney tissue (FIG. 8)",[1]; [2],remarkably reduced
same,"concentration of BUN (serum, FIG. 2)",[1]; [2],decreased
same,concentration of KIM-1 in the urine (FIG. 4),[1]; [2],decreased
same,concentration of NGAL in the urine (FIG. 4),[1]; [2],decreased
same,"concentration of creatinine (Serum Cr, FIG. 3)",[1]; [2],decreased
same,concentration of microproteinuria (albumin) in the urine (FIG. 4),[1]; [2],decreased
same,"infiltration of inflammatory cells (macrophages, F4/80-positive cells) within the kidney tissue (FIG. 7)",[1]; [2],remarkably reduced
same,inflammation (MCP-1 gene expression) in the kidney tissue (FIG. 6),[1]; [2],remarkably reduced
same,nitrotyrosine in the kidney tissue (FIG. 9),[1]; [2],remarkably reduced
CCCCc1c(-c2ccccc2)nn(-c2ccccn2)c1O [3-phenyl-4-butyl-1-(pyridin-2-yl)-1H-pyrazol-5-ol],inhibitory effect on the formation of reactive oxygen species,reactive oxygen species,inhibitory effect
CCCc1c(-c2ccccc2)nn(-c2ccccn2)c1O [3-phenyl-4-propyl-1-(pyridin-2-yl)-1H-pyrazol-5-ol],inhibitory effect on the formation of reactive oxygen species,reactive oxygen species,inhibitory effect
CCc1c(-c2ccccc2)nn(-c2ccccn2)c1O [3-phenyl-4-ethyl-1-(pyridin-2-yl)-1H-pyrazol-5-ol],inhibitory effect on the formation of reactive oxygen species,reactive oxygen species,inhibitory effect
